Molecules are shown by their SMILES. A value given as a limit tells only on which side of the number the result lay.

The target of the experiment is HiBit-WIZ fusion protein (Homo sapiens, UniProt O95785+Q96SW2). Put plainly: Quantification of WIZ protein levels in HiBit tag fusion protein assay (WIZ HiBit assay in 293T cells). It is filed as cell-based. Details: Dmax: dose or concentration left out as unconfirmed. To be noted: for Dmax / remaining activity at up to 25 µM: HEK-293T, 293T cells; for Dmax: 100 minus Amax, read-out: % degradation of WIZ (100-Amax); for remaining activity at up to 25 µM: DMSO-normalized, curve-fitted percentage of WIZ-HiBit remaining at 25 uM, read-out: WIZ Amax; for DC50: WIZ HiBit assay in 293T cells, 10-point, 5-fold dose response, highest concentration 25 μM, about 18 hours, read-out: WIZ AC50. A general note: HiBiT is a short tag that completes a luciferase, so light tracks the accessible tagged protein.
Chain of HiBit-WIZ fusion protein (O95785 whole entry, the tested form may be a part): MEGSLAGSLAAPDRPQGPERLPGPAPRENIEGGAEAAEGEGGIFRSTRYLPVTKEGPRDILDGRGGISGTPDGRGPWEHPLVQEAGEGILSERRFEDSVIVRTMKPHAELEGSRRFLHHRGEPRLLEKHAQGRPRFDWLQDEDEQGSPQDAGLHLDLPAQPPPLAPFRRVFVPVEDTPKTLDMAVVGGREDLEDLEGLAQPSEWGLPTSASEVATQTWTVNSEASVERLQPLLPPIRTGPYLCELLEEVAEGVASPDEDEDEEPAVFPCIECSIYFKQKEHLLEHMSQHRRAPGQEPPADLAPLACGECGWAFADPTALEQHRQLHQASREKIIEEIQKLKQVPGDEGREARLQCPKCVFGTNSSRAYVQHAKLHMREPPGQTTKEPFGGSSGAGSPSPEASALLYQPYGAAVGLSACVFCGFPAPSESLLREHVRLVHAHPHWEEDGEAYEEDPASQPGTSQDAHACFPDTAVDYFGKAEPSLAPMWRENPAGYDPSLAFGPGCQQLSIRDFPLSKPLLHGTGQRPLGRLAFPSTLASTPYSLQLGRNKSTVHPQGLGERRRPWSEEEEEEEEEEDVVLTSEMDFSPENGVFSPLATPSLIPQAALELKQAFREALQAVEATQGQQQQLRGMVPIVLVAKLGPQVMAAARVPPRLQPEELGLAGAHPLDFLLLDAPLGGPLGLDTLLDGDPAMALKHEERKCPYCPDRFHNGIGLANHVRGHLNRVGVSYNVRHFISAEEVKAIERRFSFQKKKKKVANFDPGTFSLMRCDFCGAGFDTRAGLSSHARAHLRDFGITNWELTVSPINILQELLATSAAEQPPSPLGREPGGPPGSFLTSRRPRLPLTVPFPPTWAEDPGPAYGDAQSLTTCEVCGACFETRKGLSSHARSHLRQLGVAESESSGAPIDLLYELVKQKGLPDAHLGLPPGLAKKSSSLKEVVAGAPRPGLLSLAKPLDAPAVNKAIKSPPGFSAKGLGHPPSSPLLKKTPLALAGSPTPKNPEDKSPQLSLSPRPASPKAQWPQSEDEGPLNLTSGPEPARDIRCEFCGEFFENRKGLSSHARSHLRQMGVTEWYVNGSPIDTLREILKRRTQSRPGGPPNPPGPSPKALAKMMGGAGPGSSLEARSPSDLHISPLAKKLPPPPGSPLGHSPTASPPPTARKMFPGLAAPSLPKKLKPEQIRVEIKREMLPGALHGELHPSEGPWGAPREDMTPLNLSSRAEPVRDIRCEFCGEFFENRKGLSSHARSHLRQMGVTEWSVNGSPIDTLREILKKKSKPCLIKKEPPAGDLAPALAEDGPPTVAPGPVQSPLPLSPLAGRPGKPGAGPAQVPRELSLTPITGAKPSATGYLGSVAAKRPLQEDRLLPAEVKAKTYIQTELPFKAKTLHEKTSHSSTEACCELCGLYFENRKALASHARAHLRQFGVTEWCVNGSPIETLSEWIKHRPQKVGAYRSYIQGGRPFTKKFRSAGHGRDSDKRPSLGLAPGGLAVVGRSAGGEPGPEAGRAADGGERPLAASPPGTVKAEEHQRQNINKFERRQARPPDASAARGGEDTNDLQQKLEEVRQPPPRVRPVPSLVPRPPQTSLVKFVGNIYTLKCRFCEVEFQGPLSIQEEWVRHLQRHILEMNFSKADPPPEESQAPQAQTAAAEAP
Chain of HiBit-WIZ fusion protein (Q96SW2 whole entry, the tested form may be a part): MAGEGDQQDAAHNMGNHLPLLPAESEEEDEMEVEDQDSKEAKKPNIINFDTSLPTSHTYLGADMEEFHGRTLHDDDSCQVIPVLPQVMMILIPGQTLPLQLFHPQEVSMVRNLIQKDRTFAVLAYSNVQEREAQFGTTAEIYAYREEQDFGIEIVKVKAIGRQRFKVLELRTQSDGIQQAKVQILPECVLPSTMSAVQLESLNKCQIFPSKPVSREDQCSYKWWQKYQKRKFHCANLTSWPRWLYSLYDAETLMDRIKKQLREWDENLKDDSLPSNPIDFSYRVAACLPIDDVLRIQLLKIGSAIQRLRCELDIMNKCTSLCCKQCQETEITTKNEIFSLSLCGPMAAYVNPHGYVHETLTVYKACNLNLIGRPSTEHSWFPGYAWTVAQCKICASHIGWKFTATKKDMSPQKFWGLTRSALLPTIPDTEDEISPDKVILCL
Chain of HiBit-WIZ fusion protein (Q16531 whole entry partner, the tested form may be a part): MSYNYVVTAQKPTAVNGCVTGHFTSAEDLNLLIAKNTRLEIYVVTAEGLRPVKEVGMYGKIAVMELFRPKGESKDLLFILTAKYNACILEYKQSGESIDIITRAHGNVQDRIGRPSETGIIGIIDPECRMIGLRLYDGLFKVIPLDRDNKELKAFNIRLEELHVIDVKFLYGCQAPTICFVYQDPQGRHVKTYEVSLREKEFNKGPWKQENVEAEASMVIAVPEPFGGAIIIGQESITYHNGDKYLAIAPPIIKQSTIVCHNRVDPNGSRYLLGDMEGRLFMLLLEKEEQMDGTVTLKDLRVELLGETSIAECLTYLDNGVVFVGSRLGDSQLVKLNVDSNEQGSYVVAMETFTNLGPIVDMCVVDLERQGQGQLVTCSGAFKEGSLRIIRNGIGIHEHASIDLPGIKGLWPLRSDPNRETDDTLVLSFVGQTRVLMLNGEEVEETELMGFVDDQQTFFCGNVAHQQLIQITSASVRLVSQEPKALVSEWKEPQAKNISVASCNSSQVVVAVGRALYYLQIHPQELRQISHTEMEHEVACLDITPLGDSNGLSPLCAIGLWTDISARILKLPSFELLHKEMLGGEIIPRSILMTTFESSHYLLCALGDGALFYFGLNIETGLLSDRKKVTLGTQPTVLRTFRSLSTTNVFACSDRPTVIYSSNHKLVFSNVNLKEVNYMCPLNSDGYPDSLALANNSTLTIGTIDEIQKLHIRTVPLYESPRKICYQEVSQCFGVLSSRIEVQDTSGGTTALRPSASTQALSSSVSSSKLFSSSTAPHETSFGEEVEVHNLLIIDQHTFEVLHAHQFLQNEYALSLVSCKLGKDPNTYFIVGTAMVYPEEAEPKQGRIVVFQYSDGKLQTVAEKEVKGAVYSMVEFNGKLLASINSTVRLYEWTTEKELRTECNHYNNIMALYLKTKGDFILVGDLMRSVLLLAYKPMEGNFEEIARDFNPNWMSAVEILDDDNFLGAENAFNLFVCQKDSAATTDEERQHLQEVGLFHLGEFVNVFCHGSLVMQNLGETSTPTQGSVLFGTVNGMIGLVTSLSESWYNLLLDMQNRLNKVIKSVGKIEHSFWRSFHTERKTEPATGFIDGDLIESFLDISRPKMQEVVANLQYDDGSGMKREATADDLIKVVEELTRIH

For the molecule `Cc1nn(-c2ccccc2)c(C)c1C(=O)N1CCCC[C@H]1COc1ccc2c(c1)CN(C1CCC(=O)NC1=O)C2=O` (stereo partly drawn) [Compound I-72gs], the Dmax was 57.9%, the remaining activity at up to 25 µM was found to be 42.1% and the DC50 stood at 7.39 µM.
For `C[C@H](CC(=O)N1CCCC[C@H]1COc1ccc2c(c1)CN(C1CCC(=O)NC1=O)C2=O)c1ccccc1` (stereo partly drawn) [Compound I-72gu], in that order: 0.2%, 99.8% and more than 25 µM.
In the case of `CCn1cc(C(=O)N2CCCC[C@H]2COc2ccc3c(c2)CN(C2CCC(=O)NC2=O)C3=O)c(C)n1` (stereo partly drawn) [Compound I-72gw], the Dmax was 19.1%, the remaining activity at up to 25 µM was found to be 80.9% and the DC50 is more than 25 µM.
For `Cc1nnc(-c2ccc(C(=O)N3CCCC[C@H]3COc3ccc4c(c3)CN(C3CCC(=O)NC3=O)C4=O)cc2)o1` (stereo partly drawn) [Compound I-72gy], in that order: 44.1%, 55.9% and more than 25 µM.
For `Cn1nccc1-c1cccc(C(=O)N2CCCC[C@H]2COc2ccc3c(c2)CN(C2CCC(=O)NC2=O)C3=O)c1` (stereo partly drawn) [Compound I-72gz], the Dmax was 13.7%, the remaining activity at up to 25 µM was 86.3% and the DC50 was more than 25 µM.
The like results for `O=C1CCC(N2Cc3cc(OC[C@@H]4CCCCN4C(=O)c4cccc(N5CCCC5=O)c4)ccc3C2=O)C(=O)N1` (stereo partly drawn) [Compound I-72hf] were, in that order, 6.8%, 93.2% and more than 25 µM.
For `Cc1cc(O)cc(C(=O)N2CCCC[C@H]2COc2ccc3c(c2)CN(C2CCC(=O)NC2=O)C3=O)c1` (stereo partly drawn) [Compound I-72hi], in that order: 13.8%, 86.2% and more than 25 µM.
For `CC(C)(C)c1cc(CC(=O)N2CCCC[C@H]2COc2ccc3c(c2)CN(C2CCC(=O)NC2=O)C3=O)on1` (stereo partly drawn) [Compound I-72hj], in that order: 0.7%, 99.3% and more than 25 µM.
With `COc1ccc(CC(=O)N2CCCC[C@H]2COc2ccc3c(c2)CN(C2CCC(=O)NC2=O)C3=O)cn1` (stereo partly drawn) [Compound I-72hk], the Dmax is 9.2%, the remaining activity at up to 25 µM is 90.8% and the DC50 was more than 25 µM.
`O=C1CCC(N2Cc3cc(OC[C@@H]4CCCCN4C(=O)c4ccc5nccnc5c4)ccc3C2=O)C(=O)N1` (stereo partly drawn) [Compound I-72hq]: the Dmax was 13.3%, the remaining activity at up to 25 µM was found to be 86.7% and the DC50 was more than 25 µM.
On to `O=C1CCC(N2Cc3cc(OC[C@@H]4CCCCN4C(=O)c4cccc(OC(F)F)c4)ccc3C2=O)C(=O)N1` (stereo partly drawn) [Compound I-72hx], for which the Dmax worked out at 5.1%, the remaining activity at up to 25 µM turned out to be 94.9% and the DC50 is more than 25 µM.
For `Cn1ccc(-c2cccc(C(=O)N3CCCC[C@H]3COc3ccc4c(c3)CN(C3CCC(=O)NC3=O)C4=O)c2)n1` (stereo partly drawn) [Compound I-72id], in that order: 11%, 89% and more than 25 µM.
As to `CN1CCOc2cc(C(=O)N3CCCC[C@H]3COc3ccc4c(c3)CN(C3CCC(=O)NC3=O)C4=O)cnc21` (stereo partly drawn) [Compound I-72ij], the Dmax worked out at 68.7%, the remaining activity at up to 25 µM was 31.3% and the DC50 came out at 2.77 µM.
For `Cn1nc(C(=O)N2CCCC[C@H]2COc2ccc3c(c2)CN(C2CCC(=O)NC2=O)C3=O)cc1-c1ccccc1` (stereo partly drawn) [Compound I-72ir], in that order: 35.7%, 64.3% and more than 25 µM.
The like results for `COc1cc(OC)nc(C(=O)N2CCCC[C@H]2COc2ccc3c(c2)CN(C2CCC(=O)NC2=O)C3=O)n1` (stereo partly drawn) [Compound I-72is] were, in that order, 0.9%, 99.1% and more than 25 µM.
Take `CCN1CCC[C@@H](C(=O)N2CCCC[C@H]2COc2ccc3c(c2)CN(C2CCC(=O)NC2=O)C3=O)C1` (stereo partly drawn) [Compound I-72it]: the Dmax was determined as 5.9%, the remaining activity at up to 25 µM was found to be 94.1% and the DC50 is more than 25 µM.
The like results for `Cc1cc(-n2c(C)cc(C(=O)N3CCCC[C@H]3COc3ccc4c(c3)CN(C3CCC(=O)NC3=O)C4=O)c2C)no1` (stereo partly drawn) [Compound I-72iu] were, in that order, 71.7%, 28.3% and 2 µM.
The like results for `O=C1CCC(N2Cc3cc(OC[C@@H]4CCCCN4C(=O)C45CC(F)(C4)C5)ccc3C2=O)C(=O)N1` (stereo partly drawn) [Compound I-72iv] were, in that order, 2.2%, 97.8% and more than 25 µM.
For `O=C1CCC(N2Cc3cc(OC[C@@H]4CCCCN4C(=O)c4[nH]nc5c4CCCC5)ccc3C2=O)C(=O)N1` (stereo partly drawn) [Compound I-72ix], in that order: 13%, 87% and more than 25 µM.
As to `O=C1CCC(N2Cc3cc(OC[C@@H]4CCCCN4C(=O)c4cccc5cnccc45)ccc3C2=O)C(=O)N1` (stereo partly drawn) [Compound I-72j], the Dmax turned out to be 21.5%, the remaining activity at up to 25 µM stood at 78.5% and the DC50 was more than 25 µM.
For `O=C1CCC(N2Cc3cc(OC[C@@H]4CCCCN4C(=O)CCn4c(=O)oc5ccccc54)ccc3C2=O)C(=O)N1` (stereo partly drawn) [Compound I-72jb], in that order: 0.3%, 99.7% and more than 25 µM.
For `CCc1ncc(C(=O)N2CCCC[C@H]2COc2ccc3c(c2)CN(C2CCC(=O)NC2=O)C3=O)s1` (stereo partly drawn) [Compound I-72jf], in that order: 34.2%, 65.8% and more than 25 µM.
`CN(C)CC(=O)N1CCCC[C@H]1COc1ccc2c(c1)CN(C1CCC(=O)NC1=O)C2=O` (stereo partly drawn) [Compound I-72jk]: the Dmax amounted to 7.2%, the remaining activity at up to 25 µM was 92.8% and the DC50 was more than 25 µM.
In the case of `O=C1CCC(N2Cc3cc(OC[C@@H]4CCCCN4C(=O)CN4CCCCC4)ccc3C2=O)C(=O)N1` (stereo partly drawn) [Compound I-72jq], the Dmax came to 11.7%, the remaining activity at up to 25 µM was 88.3% and the DC50 is more than 25 µM.
Take `CC(C)Oc1cccc(C(=O)N2CCCC[C@H]2COc2ccc3c(c2)CN(C2CCC(=O)NC2=O)C3=O)c1` (stereo partly drawn) [Compound I-72ju]: the Dmax came to 14.5%, the remaining activity at up to 25 µM was determined as 85.5% and the DC50 is more than 25 µM.
For `O=C1CCC(N2Cc3cc(OC[C@@H]4CCCCN4C(=O)c4ccccc4Cn4cncn4)ccc3C2=O)C(=O)N1` (stereo partly drawn) [Compound I-72jx], in that order: 6.1%, 93.9% and more than 25 µM.
The like results for `CC(C)Oc1ccccc1C(=O)N1CCCC[C@H]1COc1ccc2c(c1)CN(C1CCC(=O)NC1=O)C2=O` (stereo partly drawn) [Compound I-72jy] were, in that order, 11.3%, 88.7% and more than 25 µM.
In the case of `O=C1CCC(N2Cc3cc(OC[C@@H]4CCCCN4C(=O)c4ccnnc4)ccc3C2=O)C(=O)N1` (stereo partly drawn) [Compound I-72kc], the Dmax worked out at 9.4%, the remaining activity at up to 25 µM was found to be 90.6% and the DC50 is more than 25 µM.
The like results for `O=C1CCC(N2Cc3cc(OC[C@@H]4CCCCN4C(=O)Cc4cscn4)ccc3C2=O)C(=O)N1` (stereo partly drawn) [Compound I-72m] were, in that order, 8.4%, 91.6% and more than 25 µM.
For `Cc1nc(C(F)(F)F)ccc1C(=O)N1CCCC[C@H]1COc1ccc2c(c1)CN(C1CCC(=O)NC1=O)C2=O` (stereo partly drawn) [Compound I-72n], in that order: 23.4%, 76.6% and more than 25 µM.
The like results for `CCc1noc(CC)c1C(=O)N1CCCC[C@H]1COc1ccc2c(c1)CN(C1CCC(=O)NC1=O)C2=O` (stereo partly drawn) [Compound I-72s] were, in that order, 78.2%, 21.8% and 0.962 µM.
For the molecule `CCCCCc1ccc(C(=O)N2CCCC[C@H]2COc2ccc3c(c2)CN(C2CCC(=O)NC2=O)C3=O)cc1` (stereo partly drawn) [Compound I-72t], the Dmax is 69.9%, the remaining activity at up to 25 µM worked out at 30.1% and the DC50 came to 1.47 µM.
For the molecule `N#CCCN1CCN(CC(=O)N2CCCC[C@H]2COc2ccc3c(c2)CN(C2CCC(=O)NC2=O)C3=O)CC1` (stereo partly drawn) [Compound I-72x], the Dmax came to 0%, the remaining activity at up to 25 µM came out at 100% and the DC50 was more than 25 µM.
For `N#CC1(c2cc(C(=O)N3CCCC[C@H]3COc3ccc4c(c3)CN(C3CCC(=O)NC3=O)C4=O)ccn2)CC1` (stereo partly drawn) [Compound I-72y], in that order: 2.9%, 97.1% and more than 25 µM.
The like results for `COc1ccccc1C(=O)N1CCC[C@@H]1COc1ccc2c(c1)CN(C1CCC(=O)NC1=O)C2=O` (stereo partly drawn) [Compound I-83, 3-(5-(((R)-1-(2-methoxybenzoyl)pyrrolidin-2-yl)methoxy)-1-oxoisoindolin-2-yl)piperidine-2,6-dione] were, in that order, 16.8%, 83.2% and more than 25 µM.
With `O=C1CCC(N2Cc3cc(OC[C@@H]4CC(F)(F)CN4)ccc3C2=O)C(=O)N1` (stereo partly drawn) [Compound I-84, 3-(5-(((S)-4,4-difluoropyrrolidin-2-yl)methoxy)-1-oxoisoindolin-2-yl)piperidine-2,6-dione], the Dmax turned out to be 21.2%, the remaining activity at up to 25 µM turned out to be 78.8% and the DC50 is more than 25 µM.
The like results for `CO[C@H]1C[C@H](CN2CCCC[C@@H]2COc2ccc3c(c2)CN(C2CCC(=O)NC2=O)C3=O)C1` (stereo partly drawn) [Compound I-97, 3-(5-(((R)-1-(((1r,3R)-3-methoxycyclobutyl)methyl)piperidin-2-yl)methoxy)-1-oxoisoindolin-2-yl)piperidine-2,6-dione] were, in that order, 91.8%, 8.17% and 0.14 µM.

Source of the values: patent publication US11566022B2, “3-(5-methoxy-1-oxoisoindolin-2-yl)piperidine-2,6-dione derivatives and uses thereof” (NOVARTIS AG, priority 2019, dated 2023).
